# EP4567031A1, “HPK1 INHIBITOR, PREPARATION METHOD THEREFOR, AND USE THEREOF” (Beijing Earthwise Technology Co., Ltd., priority 2022, dated 2024)
# Like-named read-outs stand apart in the source and are kept apart here.
# Test system: human Pan T cells
# Assay: Human Pan T cell IL-2 ELISA
# Type: cell-based
# Details: read-out: IL-2 release, EC50
# Procedure: A compound was dissolved in DMSO to 10 mM, and then diluted three-fold with DMSO to 9 dosages in a 96-well plate. Then, 10 µL of the diluted compound sample was transferred to a 96-well plate with 90 µL of cell culture medium, and the plate was shaken for 5 minutes. Then, 5 µL of the diluted compound sample was transferred to a 96-well plate with 120 µL of cell culture medium, and the plate was shaken for 5 minutes. According to the experimental design diagram, 50 µL of the diluted compound sample was transferred to a cell plate. Final concentrations of the compound in this assay were 10000.00, 5000, 2500, 1250, 625, 312.5, 156.25, 78.125 and 39.063 nM.
# The assay was conducted in a 96-well plate. On the first day of the assay, Anti-CD3 was added to the 96-well plate and incubated in a 4 °C refrigerator overnight. On the second day of the assay, human Pan T cells were recovered, centrifuged and counted. The cell density was adjusted to 1*10^6 cells/ml. Then, 100 µL of cells were added to the 96-well plate washed with PBS and added with Anti-CD3; according to the experimental design diagram, 50 µL of diluted Anti-CD28 and 50 µL of the diluted compound were added to each well, centrifuged, and the cell plate was placed and incubated in an incubator for 48 hours; after 48 hours, the plate was centrifuged and the supernatant was collected for IL-2 ELISA.
# The signal value of light absorption was converted into a multiple. Multiple = sample value/the average value of control wells. The average value of control wells refers to the value measured in wells with DMSO added. EC50 values were calculated by XLFit (version 5.3.1.3) in Excel. Equation: Y=Bottom + (Top-Bottom) / (1 + (EC50/X) ^ HillSlope). Table 6. Results of cellular activity of the compounds
# [1] = Homo sapiens, T-cell, 48 h, Anti-CD3 and Anti-CD28, supernatant IL-2 ELISA
# [2] = Anti-CD3 and Anti-CD28, 48 hours, supernatant IL-2 ELISA
EC50 [1] [nM],EC50 [2] [nM],SMILES
50,–,"CC1(C)c2cc(N3CCOCC3)ccc2Nc2c1cc(-c1cnc3n1CCCC3OC1COC1)c1c2C(=O)NC1 (single isomer, unassigned) [Example 220]"
6.4,–,"CC1(C)c2cc(N3CCOCC3)ccc2Nc2c1cc(-c1cnc3n1CCCC3O)c1c2C(=O)NC1 (single isomer, unassigned) [Example 227]"
–,11,"CC1(C)c2cc(N3CCOCC3)ccc2Nc2c1cc(-c1cnc3n1CCCC3O)c1c2C(=O)NC1 (single isomer, unassigned) [Example 228]"
14,–,"COC1CCn2c(-c3cc4c(c5c3CNC5=O)Nc3ccc(N5CCOCC5)cc3C4(C)C)cnc21 (single isomer, unassigned) [Example 229]"
–,7.6,"COC1CCn2c(-c3cc4c(c5c3CNC5=O)Nc3ccc(N5CCOCC5)cc3C4(C)C)cnc21 (single isomer, unassigned) [Example 230]"
10.5,–,"COCC1(O)CCN(c2ccc3c(c2)C(C)(C)c2cc(-c4cnc5n4CCCC5OC)c4c(c2N3)C(=O)NC4)CC1 (single isomer, unassigned) [Example 231]"
–,7.5,"CC1(C)c2cc(N3CCOCC3)ccc2Nc2c1cc(-c1cnc3n1CCC(C(F)F)C3)c1c2C(=O)NC1 (single isomer, unassigned) [Example 239]"
–,26,"CC1(C)c2cc(N3CCOCC3)ccc2Nc2c1cc(-c1cnc3n1CCC(C(F)F)C3)c1c2C(=O)NC1 (single isomer, unassigned) [Example 240]"
10,–,"CC1(C)c2cc(N3CCOCC3)ccc2Nc2c1cc(-c1cnc3n1CCC(O)C3)c1c2C(=O)NC1 (single isomer, unassigned) [Example 241]"
8.5,–,"CC1(C)c2cc(N3CCOCC3)ccc2Nc2c1cc(-c1cnc3n1CCC(C#N)C3)c1c2C(=O)NC1 (single isomer, unassigned) [Example 242]"
13,–,"COC1CCCn2c(-c3cc4c(c5c3CNC5=O)Nc3ccc(N5CCC(O)CC5)cc3C4(C)C)cnc21 (single isomer, unassigned) [Example 243]"
9.8,–,"COc1nccn2c(-c3cc4c(c5c3CNC5=O)Nc3ccc(N5CCOCC5C)cc3C4(C)C)cnc12 (single isomer, unassigned) [Example 244]"
170,–,"COC1CCCn2c(-c3nc4c(c5c3CNC5=O)Nc3ccc(N5CCOCC5)cc3C4(C)C)cnc21 (single isomer, unassigned) [Example 279]"
18,–,"CCOC1CCCn2c(-c3cc4c(c5c3CCNC5=O)Nc3ccc(N5CCOCC5)cc3C4(C)C)cnc21 (single isomer, unassigned) [Example 281]"
14.2,–,Cn1ccc2c(-c3cc4c(c5c3CNC5=O)Nc3ccc(N5CCOCC5)cc3C4(C)C)ccnc21 [Example 42]
22.3,–,CC1(C)c2cc(N3CCOC(C(C)(C)O)C3)ccc2Nc2c1cc(-c1ccncc1)c1c2C(=O)NC1 (stereo not drawn) [Example 43]
2.47,–,CN1CCN(c2ccc3c(c2)C(C)(C)c2cc(-c4cnn5cccnc45)c4c(c2N3)C(=O)NC4)CC1 [Example 44]
5.28,–,CNC1CCN(c2ccc3c(c2)C(C)(C)c2cc(-c4cnn5cccnc45)c4c(c2N3)C(=O)NC4)CC1 [Example 45]
4.62,–,CC1(C)c2cc(N3CCC(O)CC3)ccc2Nc2c1cc(-c1cnn3cccnc13)c1c2C(=O)NC1 [Example 47]

EC50 [1] [nM],EC50 [2] [nM],SMILES
13.5,–,CC1(C)c2cc(N3CCOCC3)ccc2Nc2c1cc(-c1cnc3n1CCCC3)c1c2C(=O)NC1 [Example 48]
12.7,–,COCC1(O)CCN(c2ccc3c(c2)C(C)(C)c2cc(-c4cnn5cccnc45)c4c(c2N3)C(=O)NC4)CC1 [Example 49]
5.52,–,CC1(C)c2cc(N3CCOC(C(C)(C)O)C3)ccc2Nc2c1cc(-c1cnc3c(Cl)cccn13)c1c2C(=O)NC1 (stereo not drawn) [Example 99]
13.1,–,CC1(C)c2cc(N3CCOC(C(C)(C)O)C3)ccc2Nc2c1cc(-c1cnc3cc(Cl)ccn13)c1c2C(=O)NC1 (stereo not drawn) [Example 100]
5.58,–,CC1(C)c2cc(N3CCOC(C(C)(C)O)C3)ccc2Nc2c1cc(-c1cnc3cc(C#N)ccn13)c1c2C(=O)NC1 (stereo not drawn) [Example 101]
10.8,–,COC1CCCn2c(-c3cc4c(c5c3CNC5=O)Nc3ccc(N5CCOC(C(C)(C)O)C5)cc3C4(C)C)cnc21 (stereo not drawn) [Example 102]
10.4,–,CC1CCCn2c(-c3cc4c(c5c3CNC5=O)Nc3ccc(N5CCOC(C(C)(C)O)C5)cc3C4(C)C)cnc21 (stereo not drawn) [Example 103]
6.44,–,Cc1c(-c2cc3c(c4c2CNC4=O)Nc2ccc(N4CCOC(C(C)(C)O)C4)cc2C3(C)C)cnc2c1NCCO2 (stereo not drawn) [Example 104]
11.6,–,Cn1c(-c2cc3c(c4c2CNC4=O)Nc2ccc(N4CCOC(C(C)(C)O)C4)cc2C3(C)C)cnc1C1CC1 (stereo not drawn) [Example 105]
5.58,–,CC1(C)c2cc(N3CCOC(CO)C3)ccc2Nc2c1cc(-c1cnc3cc(F)ccn13)c1c2C(=O)NC1 (stereo not drawn) [Example 108]
9.18,–,CC1(C)c2cc(N3CCOC(C(C)(C)O)C3)ccc2Nc2c1cc(-c1cnn3cc(F)ccc13)c1c2C(=O)NC1 (stereo not drawn) [Example 109]
15.9,–,COc1ccn2c(-c3cc4c(c5c3CNC5=O)Nc3ccc(N5CCOC(C(C)(C)O)C5)cc3C4(C)C)cnc2c1 (stereo not drawn) [Example 110]
30.8,–,CC1(C)c2cc(N3CCOC(C(C)(C)O)C3)ccc2Nc2c1cc(-c1cncc3c1OCCN3)c1c2C(=O)NC1 (stereo not drawn) [Example 111]
4.67,–,CC1(C)c2cc(N3CCOC(C(C)(C)O)C3)ccc2Nc2c1cc(-c1cnc3cnccn13)c1c2C(=O)NC1 (stereo not drawn) [Example 112]
14,–,CC1(C)c2cc(N3CCOC(C(C)(C)O)C3)ccc2Nc2c1cc(-c1cnc3cc(C(F)F)ccn13)c1c2C(=O)NC1 (stereo not drawn) [Example 113]
10.9,–,COc1nccn2c(-c3cc4c(c5c3CNC5=O)Nc3ccc(N5CCOC(C(C)(C)O)C5)cc3C4(C)C)cnc12 (stereo not drawn) [Example 114]
91.5,–,CC1(C)c2cc(N3CC(CO)OCC3=O)ccc2Nc2c1cc(-c1cnn3cccnc13)c1c2C(=O)NC1 (stereo not drawn) [Example 115]
65.2,–,CC1(C)c2cc(-c3cnn4cccnc34)c3c(c2Nc2cc(F)c(N4CCOCC4)c(F)c21)C(=O)NC3 [Example 116]
7.32,–,CC1(C)c2cc(N3CCOC(CO)C3)ccc2Nc2c1cc(-c1cnn3cccnc13)c1c2C(=O)NC1 (stereo not drawn) [Example 118]

EC50 [1] [nM],EC50 [2] [nM],SMILES
8.52,–,Cn1cnc2c(-c3cc4c(c5c3CNC5=O)Nc3ccc(N5CCOC(C(C)(C)O)C5)cc3C4(C)C)cncc21 (stereo not drawn) [Example 119]
4.3,–,CC1(C)c2cc(N3CCOC(C(C)(C)O)C3)ccc2Nc2c1cc(-c1cnn3ccccc13)c1c2C(=O)NC1 (stereo not drawn) [Example 122]
20.3,–,CC1(C)c2cc(N3CCOC(C(C)(C)O)C3)ccc2Nc2c1cc(-c1cnc3n1CCCCC3)c1c2C(=O)NC1 (stereo not drawn) [Example 123]
15.7,–,CC1(C)c2cc(-c3cnc4cc(F)ccn34)c3c(c2Nc2ccc(N4CCOC(C(C)(C)O)C4)c(F)c21)C(=O)NC3 (stereo not drawn) [Example 124]
8.27,–,COCC1CN(c2ccc3c(c2)C(C)(C)c2cc(-c4cnc5c(F)c(C)ccn45)c4c(c2N3)C(=O)NC4)CCO1 (stereo not drawn) [Example 131]
2.76,–,CC1(C)c2cc(N3CCOCC3)ccc2Nc2c1cc(-c1cnc3cnccn13)c1c2C(=O)NC1 [Example 156]
12.6,–,CCOc1nccn2c(-c3cc4c(c5c3CNC5=O)Nc3ccc(N5CCOCC5)cc3C4(C)C)cnc12 [Example 160]
6.36,–,CC1(C)c2cc(N3CCOCC3)ccc2Nc2c1cc(-c1cnc3cc(C(F)F)ccn13)c1c2C(=O)NC1 [Example 161]
17,–,CCc1nccn2c(-c3cc4c(c5c3CNC5=O)Nc3ccc(N5CCOCC5)cc3C4(C)C)cnc12 [Example 164]
4.8,–,CC1(C)c2cc(N3CCOCC3)ccc2Nc2c1cc(-c1cnc3cc(C#N)ccn13)c1c2C(=O)NC1 [Example 165]
6.4,–,CC1(C)c2cc(N3CCO[C@@H](C(C)(C)O)C3)ccc2Nc2c1cc(-c1cnn3cc(C(F)F)ccc13)c1c2C(=O)NC1 [Example 169]
6.3,–,COc1ccnc2c(-c3cc4c(c5c3CNC5=O)Nc3ccc(N5CCO[C@@H](C(C)(C)O)C5)cc3C4(C)C)cnn12 [Example 171]
8.1,–,CC1(C)c2cc(N3CCOCC3)ccc2Nc2c1cc(-c1cnc3c(OC(F)F)nccn13)c1c2C(=O)NC1 [Example 172]
3.8,–,Cc1nccn2c(-c3cc4c(c5c3CNC5=O)Nc3ccc(N5CCOCC5)cc3C4(C)C)cnc12 [Example 173]
39,–,Cn1c(-c2cc3c(c4c2CNC4=O)Nc2ccc(N4CCO[C@@H](C(C)(C)O)C4)cc2C3(C)C)cnc1N1CCOCC1 [Example 174]
6.9,–,CC1(C)c2cc(N3CCO[C@@H](C(C)(C)O)C3)ccc2Nc2c1cc(-c1cnc3c(F)c(C#N)ccn13)c1c2C(=O)NC1 [Example 179]
14,–,CC1(C)c2cc(N3CCOCC3)ccc2Nc2c1cc(-c1cnc3c(OC4COC4)nccn13)c1c2C(=O)NC1 [Example 184]
2.2,–,Cc1ccn2c(-c3cc4c(c5c3CNC5=O)Nc3ccc(N5CCOCC5)cc3C4(C)C)cnc2n1 [Example 185]
7.9,–,COc1ccn2c(-c3cc4c(c5c3CNC5=O)Nc3ccc(N5CCOCC5)cc3C4(C)C)cnc2c1 [Example 186]
